Measured values published in patent publication US11814643B2, “Enhanced sleeping beauty transposons, kits and methods of transposition” (Max-Delbrück-Centrum für Molekulare Medizin in der …, priority 2016, dated 2023).

Experiments:
SB transposition = assay: Transposition assay with inhibition of cathepsin or HSP90; format: cell-based; details: cathepsin inhibition; E64D 20 μM vs control
Description: In order to monitor transcriptional changes activated by the transposase, a genome-wide transcriptional study was performed (HeLa, Affymetrix). […] While HSPA2, a variant of the heat shock protein HSP70, is a member of the stress response, cathepsins are lysosomal proteases and have a vital role in mammalian cellular turnover. […] In addition, by mitigating the cellular stress response induction of the apoptotic signalling is moderated and cell viability improved.
FIG. 6 A. Effect of E64D (an inhibitor of cathepsins, cystein proteases and calpain) on SB transposition. Transposition assay, (20 μM, right side; control, left side). RNAi approach against cathepsin(s) is expected to yield a similar improvement. B. Differential expression of host genes in the presence oft the transposase (HeLa, Affymetrix). […] Cathepsins (CTs) degrade polypeptides and are distinguished by substrate specificities (CTSH, CTSF, CTS2).

HeLa cells = assay: Transposition assay of neo-marked mutated transposon constructs; format: cell-based
Text: FIG. 4 Enhanced binding affinity at the inner DR improves Sleeping Beauty transposition. On the left, schematics of various neo-marked, mutated transposon constructs are depicted. On the right, the respective transpositional activities are shown in comparison to wild type transposon (construct 1), set as 100%. A. Composite DRs were created by changing either the PAI (black box) or the RED (grey box) recognition motifs into a high-affinity binding site (CAST-5) selected by the CASTing experiment (marked by stars at the PAI and stripped at the RED recognition motifs). B. The CAST-5 sequence (SEQ ID NO: 24 or 25) was used to replace only the PAI recognition motif, while the rest of the DR was wild type.
Altering the affinity of the binding sites might challenge the ordered assembly process occurring during transposition of a SB transposon. Thus, a series of transposon versions were constructed where 12DR and/or 14DR motifs were replaced by CASTing selected, high affinity binding sites (FIG. 4A), and the various constructs were subjected to transposition assays. […] Alternatively, the negative effect of CAST-5 on transposition could, at least partially, be accounted to its preferential selection for PAI binding, while compromising its RED function. Indeed, the CAST sequences are predicted to be sub-optimal for RED interaction, including the ability to distinguish between inner vs outer positions (FIG. 2). To distinguish between the two scenarios, we generated CAST-5/wt hybrids, where CAST-5 was replacing PAI only, otherwise kept the DRs wild type (wt). Again, we tested the impact of the hybrid motifs on transposition in various combinations. […]
HeLa cells were grown in DMEM (GIBCO BRL, Germany) supplemented with 10% Fecal Calf Serum Gold (FCS Gold) (PAA, Germany) and 1% antimycotic antibiotic (Invitrogen, Germany). […] After 3 weeks of selection, colonies were stained and counted as described in Ivics et al., Cell 1997. […]

Row | Molecule | effect on SB transposition (SB transposition) | transpositional activity in comparison to wild type transposon (set as 100%) (HeLa cells; 12DRs replaced by CAST-5 motif) [%] | transpositional activity in comparison to wild type transposon (set as 100%) (HeLa cells; 14DRs replaced by CAST-5 motif) [%] | transpositional activity in comparison to wild type transposon (set as 100%) (HeLa cells; all the four DRs changed to CAST-5) [%]
1 | CCOC(=O)[C@H]1O[C@@H]1C(=O)N[C@@H](CC(C)C)C(=O)NCCC(C)C [E64D] | improvement |  |  | 
2 | CAST-5: high-affinity SB transposase binding site selected by CASTing; 12DR SEQ ID NO: 24, 14DR SEQ ID NO: 25 (chain 1 GTGACGACCCCAAGTGTACATACACGCGCC; chain 2 GTGACGACCCCAAGTGTACATACACGCGCC; listed as DNA, chemistry not fully specified) |  | 65 | 3 | 2.2
